{"source": "paper PMC6353975", "about": "“Design and activity study of a melittin–thanatin hybrid peptide” (AMB Express, 2019)", "key": {"[1]": {"details": "thanatin data from the reference; ref Fehlbaum et al. [1996]; cited from earlier work", "source_text": "Table 1 Physicochemical properties of hybrid peptide | column: Isoelectric point (pI)"}, "S. aureus [2]": {"test_system": "S. aureus", "details": "ref Fehlbaum et al. [1996]; Mandard et al. [1998]; cited from earlier work", "source_text": "Thanatin, with a primary structure of […], is a type of antimicrobial peptide consisting of 21 amino acid residues. It is found in the insect Podisus maculiventris. […] It is a peptide consisting of 26 amino acids with a primary structure of […]. […] However, its clinical application is limited by its strong toxicity (mainly hemolytic activity), genotoxicity, and influence on gene expression (Gajski et al. [2016]; Wu et al. [2015]). To ..."}, "S. aureus [3]": {"test_system": "S. aureus", "assay": "In vitro antimicrobial experiments with the recombinant hybrid peptide", "assay_type": "cell-based, Staphylococcus aureus", "details": "recombinant peptide from E. coli fusion expression after acid hydrolysis; not obtained pure", "source_text": "To expand the antimicrobial spectrum of thanatin and avoid the toxic effects of melittin, a hybrid antimicrobial peptide was designed according to a previous study (Blondelle and Houghten [1991]). Hemolysis was slightly affected by the removal of C-terminal amino acids of melittin, according to the previous study (Jahnsen et al. [2015]). Four alkaline amino acids (KRKR) are located at the C-terminal amino acids of melittin. The hybrid antimicrobial peptide that includes the full-length of thanatin and the C-terminal of melittin may reveal a stronger and safer antibacterial effect (Leonardo et al. [2012]). The hybrid antimicrobial peptide […]-AGP-[…] was designed using melittin’s C-terminal 15-amino acid mutant GLPL*[…] (L*wild type was A) as the N-terminus and thanatin as the C-terminus and by ligating with AGP to create a hybrid peptide that could inhibit S. aureus without hemolytic activity. The fusion expression of the hybrid peptide was carried out in Escherichia coli by using genetic engineering techniques, and the acid hydrolysis site AP was added to the N-terminus of the hybrid peptide. After the engineered bacteria were fermented, separated, acid-hydrolyzed, and purified, another proline residue was found on the N-terminus of the resulting peptide, that is, […]. […] However, pure hybrid peptide was not obtained due to problems associated with acid hydrolysis. […]"}}, "data": [{"sequence": "GSKKPVPIIYCNRRTGKCQRM [Thanatin, thanatin, antimicrobial peptide of 21 amino acid residues found in the insect Podisus maculiventris]", "values": [{"measurement": "Isoelectric point (pI)", "setting": "[1]", "result": 10.48}, {"measurement": "inhibition of S. aureus", "setting": "S. aureus [2]", "result": "does not inhibit S. aureus"}]}, {"sequence": "PGLPLLISWIKRKRQQGSKKPVPIIYCNRRTGKCQRM [hybrid peptide expressed as fusion in Escherichia coli, acid-hydrolyzed, with another proline on the N-terminus; not obtained pure]", "values": [{"measurement": "inhibition of growth of S. aureus", "setting": "S. aureus [3]", "result": "inhibited the growth of S. aureus"}]}]}
